Experimental data taken from patent US20060153906A1, “Pharmaceutical product for endonasal administration for treating central nervous system disease and disorders” (priority 2002, published 2006).
Like-named read-outs stand apart in the source and are kept apart here.

Columns and labels:
rats = system: rats
From the text: It should be emphasized that dopamine is not capable of penetrating the blood-brain barrier when administered conventionally.

rear paw of the rats = assay: Randall-Selitto pain test, critical pressure (WKD) on the rear paw; type: in vivo, rat
Description: The anti-nociceptive and/or analgesic effect of promedol (trimeperidine) was investigated as a result of the endonasal administration of the combination H2O2+promedol. The experiments were conducted with (raceless) sexually mature white male rats. In a pain test, the value of the critical pressure (WKD) on the rear paw of the rats was measured. The controlled pressure on the paw was generated with an analgesimeter from the company Ugo Basile in form of the Randall-Selitto test.
Comparative results in relation to the composition of the invention include, on one hand, the intraperitoneal administration of promedol without the addition of oxygen anion radicals and, on the other hand, the intraperitoneal administration of promedol with addition of oxygen anion radicals by, on one hand, inhalation with the inhalation device described in DE 41 12 459 A1 and, on the other hand, by separate endonasal administration of a liquid hydrogen peroxide solution with a concentration of 10^−5 mole/l.
The administration according to the invention consisted of a mixture of xanthine-oxidase/xanthine and promedol in doses of 5, 2, 1, and 0.1 mg/kg bodyweight of the animals.

white male rats = assay: Food motivation in partially food-deprived rats, endonasal administration; type: in vivo, rat
From the text: The experiments where carried out with white male rats. The animals of the control group 1 (n=13) received distilled water, the animals of the control group 2 (n=7) received a glucose solution, and the animals of the experimental group (n=9) received the composition H2O2+glucose. The duration of the observation was 17 days. During the first 11 days, the animals where controllably partially deprived of food (20 g dry mixed feed per animal). During the first week of the experiment, the initial motivation level for food was evaluated in the absence of the investigated preparation. The following parameters were investigated:
Latent period (LP) between the approach to the food and presentation of the food in seconds;
Time for consuming the food, in seconds (Tfut.);
Number of interruptions during food uptake (Ubr.)
After the second week, without changing the feed conditions, the preparation was introduced twice daily in a dose of 20 μl per animal, and all parameters where recorded. After the second week, the animals where fed ad libidum. No changes were made in the administration of the preparation and recordation of all parameters.
The experiments where conducted as in Example 1.

[1] = system: patients with persistent or severe pain; assay: Analgesic effect in patients with persistent or severe pain; type: in vivo, human
From the text: The enhancement of the therapeutic efficacy of the analgesic metamizol was investigated. A total of 5 volunteers participated in the observations. […] With all patients, the observations were made after six hours following the last administration of the pain therapy.

white mice = assay: Soporific effect (sleep duration) after endonasal administration; type: in vivo, mouse; conditions: 60 mg/ml, n = 7
From the text: Investigated was the effect of phenobarbital in an endonasal administration on sexually mature white mice. Both the sedative and the soporific effect of the endonasal administration of phenobarbital without oxygen anion radicals were compared with the administration of the […]

[2] = rats given haloperidol i/p (100 mg/kg), one-time endonasal, dopamine 0.125 mg/kg, L-arginine 10^-5 mole/l, H2O2 10^-6 mole/l
[3] = after administration of preparation, endonasal twice daily 20 μl per animal
[4] = before administration minus after administration (Table 4)
[5] = before administration of preparation

NCCc1ccc(O)c(O)c1 [Dopamine, dopamine]
Total spontaneous activity (Number of measurable movements) (rats; [2]): 2 ± 1.7 ^##)

OO [H2O2, hydrogen peroxide]
Total spontaneous activity (Number of measurable movements) (rats; [2]): 3 ± 1.9 ^##)

O=C(CCCN1CCC(O)(c2ccc(Cl)cc2)CC1)c1ccc(F)cc1 [Haloperidol]
Total spontaneous activity (Number of measurable movements) (rats; haloperidol i/p alone (100 mg/kg bodyweight), unharmed control 35 ± 8): 3 ± 3 ^##)

CCC(=O)OC1(c2ccccc2)CC(C)N(C)CC1C (stereo not drawn) [Promedol, trimeperidine]
Lower dose of promedol giving prolonged and enhanced analgesic effect, endonasal form with oxygen anion radicals vs other administration methods (rear paw of the rats; endonasal composition compared to other administration methods): 10-50 times | Nociception (critical pressure WKD) (rear paw of the rats; group II, 1.0 mg/kg i/p, 30 min after injection): 6.2 ± 1.9 | Nociception (critical pressure WKD) (rear paw of the rats; group II, 1.0 mg/kg i/p, 90 min after injection): 5.4 ± 1.4 | Nociception (critical pressure WKD) (rear paw of the rats; group II, 1.0 mg/kg i/p, 150 min after injection): 5.0 ± 1.2 | Nociception (critical pressure WKD) (rear paw of the rats; group II, 1.0 mg/kg i/p, 210 min after injection): 4.8 ± 0.9 | Initial value of nociception (critical pressure WKD) (rear paw of the rats; group II, 1.0 mg/kg i/p): 6.7 ± 0.9 | Nociception (critical pressure WKD) (rear paw of the rats; group III, 2.0 mg/kg i/p, 30 min after injection): 10.1 ± 1.1*) | Nociception (critical pressure WKD) (rear paw of the rats; group III, 2.0 mg/kg i/p, 90 min after injection): 9.3 ± 1.0*) | Nociception (critical pressure WKD) (rear paw of the rats; group III, 2.0 mg/kg i/p, 150 min after injection): 8.0 ± 1.1 | Nociception (critical pressure WKD) (rear paw of the rats; group III, 2.0 mg/kg i/p, 210 min after injection): 7.5 ± 0.9 | Initial value of nociception (critical pressure WKD) (rear paw of the rats; group III, 2.0 mg/kg i/p): 7.8 ± 1.6 | Nociception (critical pressure WKD) (rear paw of the rats; group IV, 5.0 mg/kg i/p, 30 min after injection): 11.0 ± 1.0**) | Nociception (critical pressure WKD) (rear paw of the rats; group IV, 5.0 mg/kg i/p, 90 min after injection): 9.8 ± 1.3**) | Nociception (critical pressure WKD) (rear paw of the rats; group IV, 5.0 mg/kg i/p, 150 min after injection): 8.3 ± 1.7*) | Nociception (critical pressure WKD) (rear paw of the rats; group IV, 5.0 mg/kg i/p, 210 min after injection): 6.7 ± 1.0 | Initial value of nociception (critical pressure WKD) (rear paw of the rats; group IV, 5.0 mg/kg i/p): 6.4 ± 0.7 | Nociception (critical pressure WKD) (rear paw of the rats; group V, 1.0 mg/kg i/p + O2- inhalation, 30 min): 8.1 ± 3.6*) | Nociception (critical pressure WKD) (rear paw of the rats; group V, 1.0 mg/kg i/p + O2- inhalation, 90 min): 8.1 ± 2.3**) | Nociception (critical pressure WKD) (rear paw of the rats; group V, 1.0 mg/kg i/p + O2- inhalation, 150 min): 9.6 ± 5.0**) | Nociception (critical pressure WKD) (rear paw of the rats; group V, 1.0 mg/kg i/p + O2- inhalation, 210 min): 5.8 ± 2.3 | Initial value of nociception (critical pressure WKD) (rear paw of the rats; group V, 1.0 mg/kg i/p + O2- inhalation): 6.9 ± 1.6 | Nociception (critical pressure WKD) (rear paw of the rats; group VI, 1.0 mg/kg i/p + separate endonasal H2O2-administration, 30 min): 8.4 ± 2.8*) | Nociception (critical pressure WKD) (rear paw of the rats; group VI, 1.0 mg/kg i/p + separate endonasal H2O2-administration, 90 min): 8.7 ± 2.0**) | Nociception (critical pressure WKD) (rear paw of the rats; group VI, 1.0 mg/kg i/p + separate endonasal H2O2-administration, 150 min): 8.6 ± 2.7**) | Nociception (critical pressure WKD) (rear paw of the rats; group VI, 1.0 mg/kg i/p + separate endonasal H2O2-administration, 210 min): 7.3 ± 2.2 | Initial value of nociception (critical pressure WKD) (rear paw of the rats; group VI, 1.0 mg/kg i/p + separate endonasal H2O2-administration): 7.1 ± 1.8

N[C@@H](CCC(=O)O)C(=O)O [glutamic acid]
LP, latent period between approach to the food and presentation of the food (white male rats; [3]): 36.3 ± 4.1 s | Tfut., time for consuming the food (white male rats; [3]): 491.2 ± 9.4 s | Change in LP (white male rats; [4]): 33.3 ± 13.1 s | Change in Tfut. (white male rats; [4]): -77.2 ± 26.6 s | Change in Ubr. (white male rats; [4]): 0.4 ± 0.6 s | LP, latent period between approach to the food and presentation of the food (white male rats; [5]): 69.9 ± 15.9 s | Tfut., time for consuming the food (white male rats; [5]): 414.0 ± 30.6 s

Cc1c(N(C)CS(=O)(=O)O)c(=O)n(-c2ccccc2)n1C [metamizol]
Analgesic efficacy in all patients ([1]; endonasally, dose of 10 mg, without addition of oxygen anion radicals): not effective | Analgesic efficacy in all patients ([1]; per os, dose of 500 mg): not effective

CCC1(c2ccccc2)C(=O)NC(=O)NC1=O [phenobarbital]
Sleep duration (white mice): 248.5 ± 22.2 min
